US6784167B2, “17-beta-hydroxysteroid dehydrogenase-II inhibitors” (Bayer Pharmaceuticals Corporation, priority 2000, dated 2004)

| melting point | Compound |
| --- | --- |
| 110 °C (dec.) | CN1C(=O)C[C@H](c2ccccc2)[C@@H]1[C@H](O)c1ccc(-c2ccc(F)cc2)s1 (relative stereo) [Example 3a, (±)-(4R*,5R*)-5-{(1S*) [5-(4-fluorophenyl)(2-thienyl)]hydroxymethyl}-1-methyl-4-phenylpyrrolidin-2-one] |
| 232 °C | CN1C(=O)C[C@H](c2ccccc2)[C@@H]1[C@H](O)c1ccc(-c2cccnc2)s1 (relative stereo) [Example 3b, (4R,5R)-5-{(1S)-hydroxy[5-(3-pyridinyl)-2-thienyl]methyl}-1-methyl-4-phenyl-2-pyrrolidinone] |
| 223 to 227 °C | CN1C(=O)C[C@H](c2ccccc2)[C@@H]1[C@H](O)c1ccc(C(=O)Nc2ccccc2)s1 (relative stereo) [Example 4, (±)-5-[(1S*)(5-(N-phenylcarbamoyl)(2-thienyl))hydroxymethyl](4R*,5R*)-1-methyl-4-phenylpyrrolidin-2-one] |
| 194 °C | CN1C(=O)C[C@H](c2ccccc2)[C@@H]1[C@H](O)c1ccc(-c2ccc(F)c(Cl)c2)s1 (relative stereo) [Example 5, (±)-(4R*,5R*)-5-{(1S*)[5-(3-chloro-4-fluorophenyl)(2-thienyl)]hydroxymethyl}-1-methyl-4-phenylpyrrolidin-2-one] |
| 185 to 188 °C | Cc1ccc([C@@H](O)[C@H]2[C@@H](c3ccccc3)CC(=O)N2C)s1 (relative stereo) [Example 6, (±)-(4R*,5R*)-5-[(1S*)-hydroxy(5-methyl(2-thienyl))methyl]-1-methyl-4-phenylpyrrolidin-2-one] |
| 163 to 165 °C | Cc1cccc([C@@H](O)[C@H]2[C@@H](c3ccccc3)CC(=O)N2C)c1 (relative stereo) [Example 7, (±)-(4R*,5R*)-5-[(1R*)hydroxy(3-methylphenyl)methyl]-1-methyl-4-phenylpyrrolidin-2-one] |
| 75 °C | CC(=O)O[C@H](c1ccc(-c2ccc(F)cc2)s1)[C@H]1[C@@H](c2ccccc2)CC(=O)N1C (relative stereo) [Example 13, (±)-(4R*,5R*)5-{(1S*)[5-(4-fluorophenyl)(2-thienyl)]acetyloxymethyl}-1-methyl4-phenylpyrrolidin-2-one] |
| 189 to 191 °C | CN1C(=O)C[C@H](c2ccccc2)[C@@H]1[C@H](O)/C=C/c1ccc(F)cc1 (relative stereo) [Example 15, (±)-(4R*,5R*)-5-[(2E)(1R*)-3-(4-fluorophenyl)-1-hydroxyprop-2-enyl]-1-methyl-4-phenylpyrrolidin-2-one] |
| 122 to 124 °C | CN1C(=O)C[C@H](c2ccccc2)[C@@H]1[C@H](O)CCc1ccc(F)cc1 (relative stereo) [Example 16, (±)-5-[(1R*)-3-(4-fluorophenyl)-1-hydroxypropyl](4R*,5R*)-1-methyl-4-phenylpyrrolidin-2-one] |
| 178 to 180 °C | CN1C(=O)C[C@@H]2c3ccccc3[C@@](O)(c3ccc(-c4ccccc4)s3)[C@@H]21 (relative stereo) [Example 24, (±)-(8S*,3aR*,8aR*)-8-hydroxy-1-methyl-8-(5-phenyl(2-thienyl))indano[2,1-b]pyrrolidin-2-one] |
| 173 °C | Cc1ccc(-c2ccc(C(O)C3C(c4ccccc4)CC(=O)N3C)s2)nc1 (stereo not shown) [Example 27] |
| 231 °C | CN1C(=O)CC(c2ccccc2)C1C(O)c1ccc(-c2cccc(C(=O)O)c2)s1 (stereo not shown) [Example 33] |
| 168 to 170 °C | COc1ccc(-c2ccc(C(O)C3C(c4ccccc4)CC(=O)N3C)s2)cc1 (stereo not shown) [Example 39] |
| 225 to 228 °C | CN1C(=O)CC(c2ccccc2)C1C(O)c1ccc(-c2ccc3ccccc3n2)s1 (stereo not shown) [Example 40] |
| 195 °C (dec.) | CN1C(=O)CC(c2ccccc2)C1C(O)c1cc2ccccc2s1 (stereo not shown) [Example 41] |
| 165 °C | CN1C(=O)CC(c2ccccc2)C1C(O)c1cc(-c2ccccc2)cs1 (stereo not shown) [Example 42] |
| 160 °C | CN1C(=O)CC(c2ccccc2)C1C(O)c1ccc(-c2cccc3ccccc23)s1 (stereo not shown) [Example 45] |
| 180 °C | CN1C(=O)CC(c2ccccc2)C1C(O)c1ccc(-c2cccc(F)c2)s1 (stereo not shown) [Example 46] |
| 97 °C | CC(=O)Nc1cccc(-c2ccc(C(O)C3C(c4ccccc4)CC(=O)N3C)s2)c1 (stereo not shown) [Example 48] |
| 190 °C (dec.) | COc1cc(-c2ccc(C(O)C3C(c4ccccc4)CC(=O)N3C)s2)cc(OC)c1OC (stereo not shown) [Example 49] |
| 194 to 195 °C (dec.) | CN1C(=O)CC(c2ccccc2)C1C(O)c1ccc(C=Cc2ccc(F)cc2)s1 (stereo not shown) [Example 56] |
| 155 to 157 °C | CN1C(=O)CC(c2ccccc2)C1C(O)c1ccc(Cc2ccc(F)cc2)s1 (stereo not shown) [Example 59] |

| melting point | Compound |
| --- | --- |
| 174 to 176 °C | CN1C(=O)CC(c2ccccc2)C1C(O)c1ccc(Sc2ccc(Cl)cc2)s1 (stereo not shown) [Example 60] |
| 202 °C (dec.) | CN1C(=O)CC(c2ccccc2)C1C(O)c1ccc(C(=O)c2ccccc2)s1 (stereo not shown) [Example 63] |
| 229 to 232 °C (dec.) | CN1C(=O)CC(c2ccccc2)C1C(O)c1ccc(C(=O)c2ccc(F)cc2)s1 (stereo not shown) [Example 65] |
| 95 °C | CN1C(=O)CC(c2ccccc2)C1C(O)c1ccc(-c2c(F)cc(F)cc2F)s1 (stereo not shown) [Example 75] |
| 195 °C | CSc1nccc(-c2ccc(C(O)C3C(c4ccccc4)CC(=O)N3C)s2)n1 (stereo not shown) [Example 77] |
| 215 °C | COc1ccc(C2CC(=O)N(C)C2C(O)c2ccc(-c3ccccc3)s2)cc1 (stereo not shown) [Example 82] |
| 209 °C | CN1C(=O)CC(c2ccc(N)cc2)C1C(O)c1ccc(-c2ccc(F)cc2)s1 (stereo not shown) [Example 86] |
| 202 °C | CN1C(=O)CC(c2ccccc2)C1C(O)c1ccc(-c2ccccc2)cc1 (stereo not shown) [Example 93] |
| 129 to 131 °C | Cc1ccc(C(O)C2C(c3ccccc3)CC(=O)N2C)cc1 (stereo not shown) [Example 95] |
| 155 to 158 °C | CN1C(=O)CC(c2ccccc2)C1C(O)c1cccc(C(F)(F)F)c1 (stereo not shown) [Example 96] |
| 160 to 161 °C | COc1cccc(C(O)C2C(c3ccccc3)CC(=O)N2C)c1 (stereo not shown) [Example 97] |
| 154 to 157 °C | COc1ccc(C(O)C2C(c3ccccc3)CC(=O)N2C)cc1 (stereo not shown) [Example 100] |
| 182 to 185 °C | CN(C)c1ccc(C(O)C2C(c3ccccc3)CC(=O)N2C)cc1 (stereo not shown) [Example 101] |
| 150 °C | CC(=O)Nc1cccc(-c2cccc(C(O)C3C(c4ccccc4)CC(=O)N3C)c2)c1 (stereo not shown) [Example 102] |
| 187 °C | CN1C(=O)CC(c2ccccc2)C1C(O)c1cccc(-c2cccc(F)c2)c1 (stereo not shown) [Example 103] |
| 130 °C | CN1C(=O)CC(c2ccccc2)C1C(O)c1cccc(-c2cccc(N)c2)c1 (stereo not shown) [Example 105] |
| 183 °C | COc1cccc(-c2cccc(C(O)C3C(c4ccccc4)CC(=O)N3C)c2)c1 (stereo not shown) [Example 107] |
| 211 °C | CN1C(=O)CC(c2ccccc2)C1C(O)c1ccc2c(c1)OCO2 (stereo not shown) [Example 108] |
| 230 °C | CN1C(=O)CC(c2ccccc2)C1C(O)c1cccc(-c2ccc(O)cc2)c1 (stereo not shown) [Example 110] |
| 117 °C | CN1C(=O)CC(c2ccccc2)C1C(O)c1ccc(-c2ccc(F)cc2)cc1 (stereo not shown) [Example 111] |
| 120 to 122 °C | CN1C(=O)CC(c2ccccc2)C1C(O)c1cc2ccccc2o1 (stereo not shown) [Example 112] |
